Here are results for four molecules from US7432341B2, “Cytokine receptor modulators and method of modulating cytokine receptor activity” (Valo HSJ, Limited Partnership, priority 2002, dated 2008).

For orientation: EC50 means the concentration at which the effect is half-maximal. Low values mean higher potency in that assay, high ones lower potency in that assay. By IC50 is commonly meant the concentration at which inhibition is half-maximal.

The test system of one experiment is VEGFR2 (Flk-1). Kind of experiment: VEGF induced proliferation in microvascular endothelial cells, incorporated tritiated thymidine method. The experiment is classed as cell-based, porcine. As to conditions: VEGF 2 ng/ml; peptides 10 μM (FIG. 2 panel A). Here is the method: (§1) FIG. 2 graphically illustrates in panel A results of proliferation assay in porcine microvascular endothelial cells in presence of VEGF (2 ng/ml) and peptides 2.1, 2.2, 2.3 (10 μM). In panel B are graphically illustrated dose-response of peptides in pulmonary arterial endothelial cells (PAEC) in presence of VEGF (2 ng/ml) and increasing doses of peptides. In panel C is graphically illustrated the effect of intravitreally injected peptides (10 μM [estimated final intraocular concentration]) of the present invention on neovascularization in rat retinas exposed to hyperoxic conditions;
To determine the efficient and non cytotoxic concentration of VEGF to use in the assay, a dose-response curve of VEGF was generated in two types of cells, namely microvascular endothelial cells and pulmonary artery endothelial cells (PAEC) that had been transfected with the Flk-1 gene. The proliferation was then measured in those two types of cells in the presence of peptides 2.1, 2.2 and 2.3 and of VEGF (2 ng/ml) pursuant to the incorporated tritiated thymidine method. The cells were preincubated at 37° C. with the different peptides at different concentrations. They were incubated with VEGF (2 ng/ml) for 24 hours. The cells were contacted with ^3H-Thymidine for 24 hours, washed and lysed. The radioactivity was measured with a scintillation counter.

The target of a further experiment is T1, VEGFR (Flk-1) (Rattus norvegicus, UniProt O08775).
T1 construct: from tissue; host or cells: rat pup retina (in vivo, intravitreal injection)
Description: Ischemic retinopathy model, neovascularization in rat retinas exposed to hyperoxic conditions. As to conditions: rat pups, 80% O2 then normoxia; peptides 10 μM final concentration in the vitreous body. The experiment is classed as in vivo. Here is the method: as §1
The efficiency of the selected peptides was verified in vivo in a ischemic retinopathy model, a phenomena highly dependant on VEGF activation. Rat pups were exposed to 80% O2 followed by a period of normoxia (21% O2). The peptides were injected at a final concentration of 10 μM in the vitreous body. The retinas were then retrieved, colored with the ADPase method and mounted on slides. Photographs of the retinas were taken with a microscope linked to a computer and the vascular density was evaluated with the Image prosoftware.

For experiment [1], the target named is T2, IL-1R/IL-1RacP (Homo sapiens, UniProt Q9NPH3).
T2 construct: endogenous in cells; host or cells: A549 carcinoma cells
T2 sequence (Q9NPH3 21-570): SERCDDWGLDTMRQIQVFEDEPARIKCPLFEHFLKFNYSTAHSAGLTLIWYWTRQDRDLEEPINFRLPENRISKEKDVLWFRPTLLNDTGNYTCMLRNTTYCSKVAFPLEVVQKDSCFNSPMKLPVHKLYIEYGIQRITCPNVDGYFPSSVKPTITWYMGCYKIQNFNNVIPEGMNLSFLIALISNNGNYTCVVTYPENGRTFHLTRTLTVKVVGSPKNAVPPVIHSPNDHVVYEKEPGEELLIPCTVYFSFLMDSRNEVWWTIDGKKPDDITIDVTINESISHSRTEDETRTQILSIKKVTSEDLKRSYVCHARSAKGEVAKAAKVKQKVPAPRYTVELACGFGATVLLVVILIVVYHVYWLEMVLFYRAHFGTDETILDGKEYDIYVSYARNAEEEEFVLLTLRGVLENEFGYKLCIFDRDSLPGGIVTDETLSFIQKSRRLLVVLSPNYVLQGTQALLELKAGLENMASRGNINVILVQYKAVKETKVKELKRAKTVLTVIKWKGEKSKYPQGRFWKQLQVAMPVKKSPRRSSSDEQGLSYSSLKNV
Description: IL-1 induced proliferation in A549 carcinoma cells, tritiated thymidine method. It counts as cell-based. As to conditions: IL-1 10 ng/ml or 1 ng/ml; peptides 10^−6 to 10^−4 M. The method, then: FIG. 9 graphically illustrates results of proliferation assays in carcinome A549 cells in presence of IL-1 (10 ng/ml-Panel A) (1 ng/ml-Panel B) and various concentrations of the peptides API-101, API-103 and API-106;
The proliferation effect of IL-1 was measured in A549 carcinoma cells in the presence of peptides API101; API103 and API106 and of IL-1 (10 ng/ml-Panel A) and (1 ng/ml-Panel B) pursuant to the incorporated tritiated thymidine method. The cells were preincubated at 37° C. with the different peptides at different concentrations, namely 10^−6, 10^−5 and 10^−4 M. They were then incubated with IL-1 (10 ng/ml or 1 ng/ml) for 24 hours. The cells were then contacted with ^3H-Thymidine for 24 hours, washed and lysed. The radioactivity was then measured with a scintillation counter. The sequences of the peptides antagonists used are as follows: API-101 […], API-103 […]; and API-106 […]. They generally correspond to the subfragment peptides having sequences SEQ ID NO: 50, NO: 52 and NO: 53, respectively except where the subfragment peptide contained an isoleucine. In that case, this isoleucine was replaced by a conservative leucine in the synthesized peptide for economic reasons.

The test system of experiment [2] is IL-1R/IL-1RacP. Description: Vasomotricity of piglet pial vessels, IL-1β induced vasodilatation. To be noted: IL-1β 75 ng/ml; U46619 10^−7M preconstriction; peptide 10^−10 to 10^−5 M; data not shown; read-out: IC50, prevention of vasodilation induced by IL-1β in piglet pial vessels. Here is the method: In another experiment, vasomotricity variation of piglets pial vessels was studied to further evaluate the particular effect of cytokine receptor subfragments on the vasodilatator effect of IL-1β. Brains were dissected from Yorkshire piglets. Slices of brain exposing the pial vessels were pinned to a wax base of a 20 ml bath containing Krebs buffer (pH 7.4) equilibrated with 95% O2-5% CO2 and maintained at 37° C. Microvessels were visualized and recorded using a video camera mounted on a dissecting microscope. Vascular diameter was measured using a digital image analyzer and the images were recorded before and after topical application of constricting agent U46619 at 10^−7M. After stabilization of the vasomotricity, IL-1β was added until stabilization of vasodilatation. Peptides were then injected at different concentrations from 10^−10 to 10^−5M. Reversal of vasodilatation (i.e. vasoconstriction) was visualized and measured as previously mentioned. IL-1β induced vasodilatation in the microvasculature of the piglet brain was observed. […] The range of concentrations of the peptide administered was from 10^−10 to 10^−5 M.

Non-standard residues stand in square brackets, D forms with d. Residues, ends and D or L forms follow the SMILES beside them. No end group written: not given here.

T1 sequence (O08775 20-1343): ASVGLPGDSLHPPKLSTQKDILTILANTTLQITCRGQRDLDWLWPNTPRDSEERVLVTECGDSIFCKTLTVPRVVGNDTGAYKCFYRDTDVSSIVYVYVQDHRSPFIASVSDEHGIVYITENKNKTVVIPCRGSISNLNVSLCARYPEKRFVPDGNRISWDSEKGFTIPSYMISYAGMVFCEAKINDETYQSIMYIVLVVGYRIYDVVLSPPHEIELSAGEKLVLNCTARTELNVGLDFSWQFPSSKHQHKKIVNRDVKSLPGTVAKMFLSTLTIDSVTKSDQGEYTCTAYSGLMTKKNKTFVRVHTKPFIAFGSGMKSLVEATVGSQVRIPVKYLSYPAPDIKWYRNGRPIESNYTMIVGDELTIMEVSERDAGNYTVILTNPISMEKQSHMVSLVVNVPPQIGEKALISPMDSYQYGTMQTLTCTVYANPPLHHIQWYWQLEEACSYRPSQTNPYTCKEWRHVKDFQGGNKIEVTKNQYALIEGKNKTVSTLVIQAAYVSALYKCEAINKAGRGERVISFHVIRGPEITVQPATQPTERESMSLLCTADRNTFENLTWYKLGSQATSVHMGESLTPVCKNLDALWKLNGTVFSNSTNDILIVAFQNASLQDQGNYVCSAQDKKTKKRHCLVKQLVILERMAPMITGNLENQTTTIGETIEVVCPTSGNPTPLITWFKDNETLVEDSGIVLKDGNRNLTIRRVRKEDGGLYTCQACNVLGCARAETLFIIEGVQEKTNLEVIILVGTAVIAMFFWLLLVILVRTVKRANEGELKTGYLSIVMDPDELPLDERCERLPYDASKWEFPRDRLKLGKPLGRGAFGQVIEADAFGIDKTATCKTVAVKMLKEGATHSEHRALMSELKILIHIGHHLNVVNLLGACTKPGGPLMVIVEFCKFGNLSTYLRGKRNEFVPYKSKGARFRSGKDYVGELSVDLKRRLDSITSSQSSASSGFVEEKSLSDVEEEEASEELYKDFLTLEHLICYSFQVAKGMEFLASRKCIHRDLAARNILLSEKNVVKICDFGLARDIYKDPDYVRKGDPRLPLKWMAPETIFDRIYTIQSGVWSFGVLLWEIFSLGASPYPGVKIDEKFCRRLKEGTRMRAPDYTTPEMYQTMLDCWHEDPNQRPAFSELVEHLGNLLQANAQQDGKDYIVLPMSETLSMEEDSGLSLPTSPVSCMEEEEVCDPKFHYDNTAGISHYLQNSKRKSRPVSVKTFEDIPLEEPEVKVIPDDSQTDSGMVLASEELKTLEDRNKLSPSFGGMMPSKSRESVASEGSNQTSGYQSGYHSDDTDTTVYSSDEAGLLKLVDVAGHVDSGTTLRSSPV

Consider `CC[C@@H](C)[C@@H](NC(=O)[C@@H](CCC(=O)O)NC(=O)[C@@H](CC(C)C)NC(=O)[C@@H](CC(N)=O)NC(=O)[C@H](NC(=O)[C@@H](CCCCN)NC(=O)[C@@H](CCC(=O)O)NC(=O)[C@@H](CCC(N)=O)NC(=O)[C@@H](C)N)[C@H](C)O)C(=O)N[C@@H](C(=O)N[C@@H](C(=O)N[C@H](CC(C)C)C(=O)N[C@@H](C(=O)NCC(=O)O)C(C)C)[C@H](C)CC)[C@H](C)CC` [2.1] (H-[dA][dQ][dE][dK][dT][dN][dL][dE][dI][dI][dI][dL][dV]G-OH; N-terminus and C-terminus assumed), for which the “VEGF induced proliferation in microvascular endothelial cells” value in the experiment on VEGFR2 (Flk-1) is listed as “completely abrogated”.

In the case of `CC(C)C[C@@H](NC(=O)[C@@H](CCCNC(=N)N)NC(=O)[C@H](NC(=O)[C@@H](CCCNC(=N)N)NC(=O)[C@@H](CCC(=O)O)NC(=O)CNC(=O)[C@H](NC(=O)[C@H](NC(=O)[C@@H](C)NC(=O)[C@H](N)CCC(=O)O)[C@H](C)O)C(C)C)C(C)C)C(=O)O` [2.2] (H-[dE][dA][dT][dV]G[dE][dR][dV][dR][dL]-OH; N-terminus and C-terminus assumed), the “VEGF induced proliferation in microvascular endothelial cells” value with VEGFR2 (Flk-1) is given as “completely abrogated”. Besides, the “induced neovascularization in vivo (vascular density of retina)” value at VEGFR (Flk-1) is on record as “most effective inhibitor of neovascularization”.

Regarding APRYTVELA [API-101], the EC50 at IL-1R/IL-1RacP [1] is 1 µM. Besides, the IC50 in the experiment with IL-1R/IL-1RacP [2] was 0.182 µM.

MKLPVHKLY [API-103]: the midpoint of the response on IL-1R/IL-1RacP [1], the EC50, lay at 1 µM.
